Source: patent US10508104B2, “6-hydroxy-5-(phenyl/heteroarylsulfonyl)pyrimidin-4(1H)-one as APJ agonists” (Bristol-Myers Squibb Company, priority 2016, dated 2019)

Biological target: human APJ receptor (Homo sapiens (Human), UniProt P35414)
Experiment: Intracellular cAMP accumulation assay (APJ hcAMP, HTRF)
Assay type: cell-based
Settings: HEK293 cells stably expressing human APJ receptor; inhibition of forskolin-mediated cAMP production; read-out: Human APJ cAMP EC50 Potency range
How it was run: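 HEK293 cells stably expressing human APJ, 5,000 per well, incubated 30 min at rt with compound, […] and 2 μM forskolin. cAMP measured by HTRF against a cAMP standard curve as inhibition of forskolin-driven production. EC50 from variable-slope sigmoidal fit.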

Sequence of human APJ receptor (P35414 whole entry): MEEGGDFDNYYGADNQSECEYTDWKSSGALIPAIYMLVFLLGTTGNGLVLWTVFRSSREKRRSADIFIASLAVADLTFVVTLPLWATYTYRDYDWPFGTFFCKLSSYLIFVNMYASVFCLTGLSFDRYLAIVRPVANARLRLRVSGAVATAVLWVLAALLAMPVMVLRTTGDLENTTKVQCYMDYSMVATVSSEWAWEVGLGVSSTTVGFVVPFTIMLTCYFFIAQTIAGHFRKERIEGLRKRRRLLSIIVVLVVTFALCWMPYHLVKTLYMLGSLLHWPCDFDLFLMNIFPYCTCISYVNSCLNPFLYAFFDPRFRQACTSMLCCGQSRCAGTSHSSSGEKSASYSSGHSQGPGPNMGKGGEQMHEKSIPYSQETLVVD

Compound	EC50
CCCCc1nc(=O)c(S(=O)(=O)c2ccc(C(=O)NCC(F)(F)F)cc2)c(O)n1-c1c(OC)cccc1OC [Example 90, 4-((2-Butyl-1-(2,6-dimethoxyphenyl)-6-hydroxy-4-oxo-1,4-dihydropyrimidin-5-yl)sulfonyl)-N-(2,2,2-trifluoroethyl)benzamide]	0.01 to 10 nM
CCCCc1nc(=O)c(S(=O)(=O)c2ccc(Br)cn2)c(O)n1-c1c(OC)cccc1OC [Example 98, 5-((5-Bromopyridin-2-yl)sulfonyl)-2-butyl-1-(2,6-dimethoxyphenyl)-6-hydroxypyrimidin-4(1H)-one]	0.01 to 10 nM

Further lines, results first:

EC50	Compound
0.01 to 10 nM	CCCCc1nc(=O)c(S(=O)(=O)c2ccc(-c3nccn3C)cc2)c(O)n1-c1c(OC)cccc1OC [Example 79, 2-Butyl-1-(2,6-dimethoxyphenyl)-6-hydroxy-5-((4-(1-methyl-1H-imidazol-2-yl)phenyl)sulfonyl)pyrimidin-4(1H)-one]
0.01 to 10 nM	CCCCc1nc(=O)c(S(=O)(=O)c2ccc(C3CC3)cc2)c(O)n1-c1c(OC)cccc1OC [Example 85, 2-Butyl-5-((4-cyclopropylphenyl)sulfonyl)-1-(2,6-dimethoxyphenyl)-6-hydroxypyrimidin-4(1H)-one]
0.01 to 10 nM	CCCCc1nc(=O)c(S(=O)(=O)c2ccc(C(=O)O)cc2)c(O)n1-c1c(OC)cccc1OC [Example 89, 4-((2-Butyl-1-(2,6-dimethoxyphenyl)-6-hydroxy-4-oxo-1,4-dihydropyrimidin-5-yl)sulfonyl)benzoic Acid]

Same assay, conditions: human APJ, intracellular cAMP accumulation; read-out: Human APJ cAMP EC50 Potency range

Compound	EC50
COc1cccc(OC)c1-n1c(CCC(C)C)nc(=O)c(S(=O)(=O)c2ccc(-n3ccccc3=O)cc2)c1O [Example 73, 1-(2,6-dimethoxyphenyl)-6-hydroxy-2-(3-methylbutyl)-5-[4-(2-oxo-1,2-dihydropyridin-1-yl)benzenesulfonyl]-1,4-dihydropyrimidin-4-one]	0.01 to 10 nM
CCCCc1nc(=O)c(S(=O)(=O)c2ccc(-n3cc(Cl)ccc3=O)cc2)c(O)n1-c1c(CC)cccc1CC [Example 77, 2-butyl-5-[4-(5-chloro-2-oxo-1,2-dihydropyridin-1-yl)benzenesulfonyl]-1-(2,6-diethylphenyl)-6-hydroxy-1,4-dihydropyrimidin-4-one]	0.01 to 10 nM
CCCCc1nc(=O)c(S(=O)(=O)c2ccc(-n3cc(C)ccc3=O)cc2)c(O)n1-c1c(CC)cccc1CC [Example 78, 2-butyl-1-(2,6-diethylphenyl)-6-hydroxy-5-[4-(5-methyl-2-oxo-1,2-dihydropyridin-1-yl)benzenesulfonyl]-1,4-dihydropyrimidin-4-one]	0.01 to 10 nM
COc1cccc(OC)c1-n1c(C2CCCC2)nc(=O)c(S(=O)(=O)c2ccc(C3CC3)cc2)c1O [Example 86, 2-cyclopentyl-5-(4-cyclopropylbenzene-sulfonyl)-1-(2,6-dimethoxyphenyl)-6-hydroxy-1,4-dihydropyrimidin-4-one]	0.01 to 10 nM
CCCCc1nc(=O)c(S(=O)(=O)c2ccc(C3CC3)cc2)c(O)n1-c1c(CC)cccc1CC [Example 87, 2-butyl-5-(4-cyclopropylbenzene-sulfonyl)-1-(2,6-diethylphenyl)-6-hydroxy-1,4-dihydropyrimidin-4-one]	0.01 to 10 nM
CCOCc1nc(=O)c(S(=O)(=O)c2ccc(C3CC3)cc2)c(O)n1-c1c(CC)cccc1CC [Example 88, 5-(4-cyclopropylbenzene-sulfonyl)-1-(2,6-diethylphenyl)-2-(ethoxymethyl)-6-hydroxy-1,4-dihydropyrimidin-4-one]	0.01 to 10 nM
CCCCc1nc(=O)c(S(=O)(=O)c2ccc(C(=O)N3CC(F)(F)C3)cc2)c(O)n1-c1c(OC)cccc1OC [Example 93, 2-butyl-5-[4-(3,3-difluoroazetidine-1-carbonyl)benzenesulfo-nyl]-1-(2,6-dimethoxyphenyl)-6-hydroxy-1,4-dihydropyrimidin-4-one]	0.01 to 10 nM
CCCCc1nc(=O)c(S(=O)(=O)c2ccc(C(=O)N3CCC(F)(F)C3)cc2)c(O)n1-c1c(OC)cccc1OC [Example 95, 2-butyl-5-[4-(3,3-difluoropyrrolidine-1-carbonyl)benzene-sulfonyl]-1-(2,6-dimethoxyphenyl)-6-hydroxy-1,4-dihydropyrimidin-4-one]	0.01 to 10 nM
CCCCc1nc(=O)c(S(=O)(=O)c2ccc(C(=O)N3CCOCC3)cc2)c(O)n1-c1c(OC)cccc1OC [Example 96, 2-butyl-1-(2,6-dimethoxyphenyl)-6-hydroxy-5-[4-(morpholine-4-carbonyl)benzenesulfo-nyl]-1,4-dihydropyrimidin-4-one]	0.01 to 10 nM
COc1cccc(OC)c1-n1c(CCC(C)C)nc(=O)c(S(=O)(=O)c2ccccn2)c1O [Example 99, 1-(2,6-dimethoxyphenyl)-6-hydroxy-2-(3-methylbutyl)-5-(pyridine-2-sulfonyl)-1,4-dihydropyrimidin-4-one]	0.01 to 10 nM
CCCCc1nc(=O)c(S(=O)(=O)c2cc(C)oc2C)c(O)n1-c1c(OC)cccc1OC [Example 100, 2-butyl-1-(2,6-dimethoxyphenyl)-5-[(2,5-dimethylfuran-3-yl)sulfonyl]-6-hydroxy-1,4-dihydropyrimidin-4-one]	0.01 to 10 nM
CCCCc1nc(=O)c(S(=O)(=O)c2ccc(C3CC3)cn2)c(O)n1-c1c(OC)cccc1OC [Example 101, 2-butyl-5-[(5-cyclopropylpyridin-2-yl)sulfonyl]-1-(2,6-dimethoxyphenyl)-6-hydroxy-1,4-dihydropyrimidin-4-one]	0.01 to 10 nM
CCCCc1nc(=O)c(S(=O)(=O)c2ccc(C3CC3)cn2)c(O)n1-c1c(CC)cccc1CC [Example 102, 2-butyl-5-[(5-cyclopropylpyridin-2-yl)sulfonyl]-1-(2,6-diethylphenyl)-6-hydroxy-1,4-dihydropyrimidin-4-one]	0.01 to 10 nM

More lines, now with the values ahead:

EC50	Compound
0.01 to 10 nM	CCCCc1nc(=O)c(S(=O)(=O)c2ccc(-n3ccc(C)cc3=O)cc2)c(O)n1-c1c(OC)cccc1OC [Example 74, 2-butyl-1-(2,6-dimethoxyphenyl)-6-hydroxy-5-[4-(4-methyl-2-oxo-1,2-dihydropyridin-1-yl)benzenesulfonyl]-1,4-dihydropyrimidin-4-one]
0.01 to 10 nM	CCCCc1nc(=O)c(S(=O)(=O)c2ccc(-n3cc(F)ccc3=O)cc2)c(O)n1-c1c(OC)cccc1OC [Example 75, 2-butyl-1-(2,6-dimethoxyphenyl)-5-[4-(5-fluoro-2-oxo-1,2-dihydropyridin-1-yl)benzenesulfonyl]-6-hydroxy-1,4-dihydropyrimidin-4-one]
0.01 to 10 nM	CCCCc1nc(=O)c(S(=O)(=O)c2ccc(-n3cc(C)ccc3=O)cc2)c(O)n1-c1c(OC)cccc1OC [Example 76, 2-butyl-1-(2,6-dimethoxyphenyl)-6-hydroxy-5-[4-(5-methyl-2-oxo-1,2-dihydropyridin-1-yl)benzenesulfonyl]-1,4-dihydropyrimidin-4-one]
0.01 to 10 nM	CCCCc1nc(=O)c(S(=O)(=O)c2ccc(-c3ncn(C)n3)cc2)c(O)n1-c1c(OC)cccc1OC [Example 80, 2-butyl-1-(2,6-dimethoxyphenyl)-6-hydroxy-5-[4-(1-methyl-1H-1,2,4-triazol-3-yl)benzenesulfonyl]-1,4-dihydropyrimidin-4-one]
0.01 to 10 nM	CCCCc1nc(=O)c(S(=O)(=O)c2ccc(-c3cccs3)cc2)c(O)n1-c1c(OC)cccc1OC [Example 81, 2-butyl-1-(2,6-dimethoxyphenyl)-6-hydroxy-5-[4-(thiophen-2-yl)benzenesulfonyl]-1,4-dihydropyrimidin-4-one]
0.01 to 10 nM	CCCCc1nc(=O)c(S(=O)(=O)c2ccc(-c3c(C)nnn3C)cc2)c(O)n1-c1c(OC)cccc1OC [Example 82, 2-butyl-1-(2,6-dimethoxyphenyl)-5-[4-(dimethyl-1H-1,2,3-triazol-5-yl)benzenesulfonyl]-6-hydroxy-1,4-dihydropyrimidin-4-one]
0.01 to 10 nM	CCCCc1nc(=O)c(S(=O)(=O)c2ccc(-c3nc(C(=O)OCC)co3)cc2)c(O)n1-c1c(OC)cccc1OC [Example 83, ethyl 2-(4-{[2-butyl-1-(2,6-dimethoxyphenyl)-6-hydroxy-4-oxo-1,4-dihydropyrimidin-5-yl]sulfonyl}phenyl)-1,3-oxazole-4-carboxylate]
0.01 to 10 nM	CCCCc1nc(=O)c(S(=O)(=O)c2ccc(-c3nc(C(=O)OC)c(C)s3)cc2)c(O)n1-c1c(OC)cccc1OC [Example 84, methyl 2-(4-{[2-butyl-1-(2,6-dimethoxyphenyl)-6-hydroxy-4-oxo-1,4-dihydropyrimidin-5-yl]sulfonyl}phenyl)-5-methyl-1,3-thiazole-4-carboxylate]
0.01 to 10 nM	CCCCc1nc(=O)c(S(=O)(=O)c2ccc(C(=O)NC3CC3)cc2)c(O)n1-c1c(OC)cccc1OC [Example 91, 4-{[2-butyl-1-(2,6-dimethoxyphenyl)-6-hydroxy-4-oxo-1,4-dihydropyrimidin-5-yl]suffonyl}-N-cyclopropylbenzamide]
0.01 to 10 nM	CCCCc1nc(=O)c(S(=O)(=O)c2ccc(C(=O)NC)cc2)c(O)n1-c1c(OC)cccc1OC [Example 92, 4-{[2-butyl-1-(2,6-dimethoxyphenyl)-6-hydroxy-4-oxo-1,4-dihydropyrimidin-5-yl]sulfonyl}-N-methylbenzamide]
0.01 to 10 nM	CCCCc1nc(=O)c(S(=O)(=O)c2ccc(C(=O)N3CC(C)(O)C3)cc2)c(O)n1-c1c(OC)cccc1OC [Example 94, 2-butyl-1-(2,6-dimethoxyphenyl)-6-hydroxy-5-[4-(3-hydroxy-3-methylazetidine-1-carbonyl)benzenesulfo-nyl]-1,4-dihydropyrimidin-4-one]
10 to 100 nM	CCCCc1nc(=O)c(S(=O)(=O)c2ccc(C(=O)Nc3ccc(F)nc3)cc2)c(O)n1-c1c(OC)cccc1OC [Example 97, 4-{[2-butyl-1-(2,6-dimethoxyphenyl)-6-hydroxy-4-oxo-1,4-dihydropyrimidin-5-yl]sulfonyl}-N-(6-fluoropyridin-3-yl)benzamide]
0.01 to 10 nM	CCCCc1nc(=O)c(S(=O)(=O)c2ccc(-c3ccc(F)cc3)cn2)c(O)n1-c1c(OC)cccc1OC [Example 103, 2-butyl-1-(2,6-dimethoxyphenyl)-5-{[5-(4-fluorophenyl)pyridin-2-yl]sulfonyl}-6-hydroxy-1,4-dihydropyrimidin-4-one]
